Values after ≈ are worked out from the molar mass of the structure shown. Where two headings read alike, the source gives them in different places.
Legend:
[1] = test system: B. subtilis; assay: MIC by tube dilution method; assay type: cell-based; conditions: Bacillus subtilis, 24 h at 37 °C, read-out: MIC
[2] = test system: S. aureus; assay: Minimum bactericidal concentration (MBC); assay type: cell-based; conditions: Staphylococcus aureus
[3] = test system: E. coli; assay: Minimum bactericidal concentration (MBC); assay type: cell-based; conditions: Escherichia coli
[4] = test system: S. aureus; assay: MIC by tube dilution method; assay type: cell-based; conditions: Staphylococcus aureus, 24 h at 37 °C, read-out: MIC
[5] = test system: A. niger; assay: Minimum fungicidal concentration (MFC); assay type: cell-based; conditions: Aspergillus niger, read-out: MBC/MFC
[6] = test system: S. enterica; assay: MIC by tube dilution method; assay type: cell-based; conditions: Salmonella enterica, 24 h, 24 h at 37 °C, read-out: MIC
[7] = test system: E. coli; assay: MIC by tube dilution method; assay type: cell-based; conditions: Escherichia coli, 24 h, 24 h at 37 °C, read-out: MIC
[8] = test system: A. fumigatus; assay: Minimum fungicidal concentration (MFC); assay type: cell-based; conditions: Aspergillus fumigatus, read-out: MBC/MFC
[9] = test system: K. pneumonia; assay: Minimum bactericidal concentration (MBC); assay type: cell-based; conditions: Klebsiella pneumoniae
[10] = test system: S. enterica; assay: Minimum bactericidal concentration (MBC); assay type: cell-based; conditions: Salmonella enterica; S. enterica; MBC; read-out: MBC/MFC
Protocol: After MIC assessment, the indole derivatives (DS1–DS21), were additionally evaluated for MBC and MFC values. […] The 10–15 ml of nutrient agar and Sabouraud dextrose agar was added to the petri plates for bacterial and fungal samples respectively with gentle shaking of plates in order to mix the culture throughout the media. Allowed the media to solidify. The petri plates were then incubated for the predefined time and temperature as referenced already for bacterial and fungal cultures respectively. The plates were then investigated visually for the development of microbial growth. The MBC and MFC were stated as the minimum concentration of the compounds in aliquots showing no visual growth after incubation.

[11] = test system: A. fumigatus; assay: MIC by tube dilution method; assay type: cell-based; conditions: Aspergillus fumigatus, 168 h, 7 days at 25 °C, read-out: MIC
[12] = test system: A. niger; assay: MIC by tube dilution method; assay type: cell-based; conditions: Aspergillus niger, 168 h, 7 days at 25 °C, read-out: MIC
[13] = test system: K. pneumonia; assay: MIC by tube dilution method; assay type: cell-based; conditions: Klebsiella pneumoniae, 24 h, 24 h at 37 °C, read-out: MIC
[14] = test system: B. subtilis; assay: Minimum bactericidal concentration (MBC); assay type: cell-based; conditions: Bacillus subtilis
[15] = test system: MDA MB 231; assay: MTT cell proliferation assay; assay type: cell-based; conditions: MDA MB 231 breast cancer, 48 h of drug treatment
Protocol: (§1) The cell lines used in study were initially procured from the National Centre for Cell Sciences (NCCS), Pune, India, and maintained in DMEM. The cell line was cultured in 25 cm^2 tissue culture flask with DMEM supplemented with 10% FBS, sodium bicarbonate, L-glutamine, and antibiotic solution containing: streptomycin (100 μg/ml), penicillin (100 U/ml). Cultured cell line was kept at 37 °C in a humidified 5% CO2 incubator (VWR, USA).
(§2) The compounds found to have good antimicrobial potential were then screened for their cytotoxicity using MTT […]) assay. 1 × 10^4 cells/well were seeded in 100 µl DMEM/MEM, supplemented with 10% FBS in each well of 96-well microculture plates and incubated for 24 h at 37 °C in a CO2 incubator. After incubation, all the prepared/synthesized compounds were added to the cells at 10, 25, 50 and 100 µg concentrations for 48 h. After 48 h of drug treatment, 10 µl MTT (5 mg/ml) was added to each well and the plates were further incubated for 4 h. Then the supernatant from each well was carefully removed, formazan crystals were dissolved in 100 µl of DMSO and absorbance at 570 nm wavelength was recorded on an ELISA reader. The IC50 value was calculated using the linear regression equation i.e. Y = Mx + C. Here, Y = 50, M and C values were derived from the viability graph. The assay was performed in triplicate.

[16] = test system: K562; assay: MTT cell proliferation assay; assay type: cell-based; conditions: Homo sapiens, K562 leukemia, 48 h of drug treatment
Protocol: as §1, §2

[17] = test system: HCT 116; assay: MTT cell proliferation assay; assay type: cell-based; conditions: Homo sapiens, HCT-116, 48 h, HCT 116 colon cancer, 48 h of drug treatment
Protocol: as §1, §2

IC50 [16]	IC50 [17]	SMILES	MIC [1]	MBC [2]	MBC [3]	MIC [4]	MFC [5]	MIC [6]	melting point	MIC [7]	MFC [8]	MBC [9]	MBC [10]	MIC [11]	MIC [12]	MIC [13]	MBC [14]	IC50 ([15]; Homo sapiens, MDA-MB-231, 48 h, read-out: IC50)	IC50 [15]
–	–	C/C(=N/c1nnc(-c2ccc([N+](=O)[O-])cc2)s1)c1ccc(/N=N\c2c[nH]c3ccc([N+](=O)[O-])cc23)cc1 [DS-5, (Z)-N-(1-(4-((Z)-(5-Nitro-1H-indol-3-yl)diazenyl)phenyl)ethylidene)-5-(4-nitrophenyl)-1,3,4-thiadiazol-2-amine]	62.5 µg/mL (≈ 122 µM)	125 µg/mL (≈ 244 µM)	31.2 µg/mL (≈ 61 µM)	125 µg/mL (≈ 244 µM)	125 µg/mL (≈ 244 µM)	31.2 µg/mL (≈ 61 µM)	160 to 165 °C	1.95 µg/mL (≈ 3.8 µM)	125 µg/mL (≈ 244 µM)	15.6 µg/mL (≈ 30.5 µM)	62.5 µg/mL (≈ 122 µM)	125 µg/mL (≈ 244 µM)	62.5 µg/mL (≈ 122 µM)	3.9 µg/mL (≈ 7.61 µM)	125 µg/mL (≈ 244 µM)	–	–
–	–	C/C(=N/c1ccc(F)cc1)c1ccc(/N=N\c2c[nH]c3ccc([N+](=O)[O-])cc23)cc1 [DS-16, (Z)-4-Fluoro-N-(1-(4-((Z)-(5-nitro-1H-indol-3-yl)diazenyl)phenyl)ethylidene)aniline]	31.2 µg/mL (≈ 77.9 µM)	125 µg/mL (≈ 311 µM)	62.5 µg/mL (≈ 156 µM)	62.5 µg/mL (≈ 156 µM)	125 µg/mL (≈ 311 µM)	62.5 µg/mL (≈ 156 µM)	150 to 152 °C	15.6 µg/mL (≈ 38.9 µM)	125 µg/mL (≈ 311 µM)	31.2 µg/mL (≈ 77.9 µM)	62.5 µg/mL (≈ 156 µM)	31.2 µg/mL (≈ 77.9 µM)	62.5 µg/mL (≈ 156 µM)	7.81 µg/mL (≈ 19.5 µM)	125 µg/mL (≈ 311 µM)	–	–
2.62 ± 0.65 µg/mL (≈ 4.82 µM)	3.37 ± 0.37 µg/mL (≈ 6.2 µM)	COc1cccc2c1C(=O)c1c(O)c3c(c(O)c1C2=O)C[C@@](O)(C(=O)CO)C[C@@H]3O[C@H]1C[C@H](N)[C@H](O)[C@H](C)O1 [DOX, doxorubicin, reference compound]	–	–	–	–	–	–	–	–	–	–	–	–	–	–	–	3 µg/mL (≈ 5.52 µM)	3.08 ± 0.95 µg/mL (≈ 5.67 µM)
–	–	C/C(=N/c1ncccn1)c1ccc(/N=N\c2c[nH]c3ccccc23)cc1 [DS-17, (Z)-N-(1-(4-((Z)-(1H-Indol-3-yl)diazenyl)phenyl)ethylidene)pyrimidin-2-amine]	125 µg/mL (≈ 367 µM)	62.5 µg/mL (≈ 184 µM)	15.6 µg/mL (≈ 45.9 µM)	62.5 µg/mL (≈ 184 µM)	125 µg/mL (≈ 367 µM)	62.5 µg/mL (≈ 184 µM)	275 to 280 °C	3.9 µg/mL (≈ 11.5 µM)	125 µg/mL (≈ 367 µM)	15.6 µg/mL (≈ 45.9 µM)	62.5 µg/mL (≈ 184 µM)	31.2 µg/mL (≈ 91.8 µM)	62.5 µg/mL (≈ 184 µM)	7.81 µg/mL (≈ 22.9 µM)	62.5 µg/mL (≈ 184 µM)	–	–
–	–	C/C(=N\Cc1ccco1)c1ccc(/N=N/c2c[nH]c3ccccc23)cc1 [DS-1, (E)-N-(2-Furylmethyl)-1-[4-[(E)-1H-indol-3-ylazo]phenyl]ethanimine]	62.5 µg/mL (≈ 183 µM)	125 µg/mL (≈ 365 µM)	125 µg/mL (≈ 365 µM)	62.5 µg/mL (≈ 183 µM)	125 µg/mL (≈ 365 µM)	62.5 µg/mL (≈ 183 µM)	315 to 320 °C	15.6 µg/mL (≈ 45.6 µM)	125 µg/mL (≈ 365 µM)	–	62.5 µg/mL (≈ 183 µM)	62.5 µg/mL (≈ 183 µM)	125 µg/mL (≈ 365 µM)	3.9 µg/mL (≈ 11.4 µM)	125 µg/mL (≈ 365 µM)	–	–
–	–	OC(Cn1cncn1)(Cn1cncn1)c1ccc(F)cc1F [FLU, fluconazole, reference compound]	–	–	–	–	125 µg/mL (≈ 408 µM)	–	–	–	125 µg/mL (≈ 408 µM)	–	–	7.81 µg/mL (≈ 25.5 µM)	31.2 µg/mL (≈ 102 µM)	–	–	–	–
–	–	CO/N=C(\C(=O)N[C@@H]1C(=O)N2C(C(=O)O)=C(COC(C)=O)CS[C@H]12)c1csc(N)n1 [CFT, cefotaxime, reference compound]	15.6 µg/mL (≈ 34.3 µM)	31.2 µg/mL (≈ 68.6 µM)	15.6 µg/mL (≈ 34.3 µM)	15.6 µg/mL (≈ 34.3 µM)	–	15.6 µg/mL (≈ 34.3 µM)	–	1.95 µg/mL (≈ 4.28 µM)	–	3.9 µg/mL (≈ 8.56 µM)	31.2 µg/mL (≈ 68.6 µM)	–	–	1.95 µg/mL (≈ 4.28 µM)	15.6 µg/mL (≈ 34.3 µM)	–	–

Source: PMC6661771, “Indole hybridized diazenyl derivatives: synthesis, antimicrobial activity, cytotoxicity evaluation and docking studies” (BMC Chemistry, 2019)
